Assay results reported in paper PMC11284792, “Backbone-Determined Antiarrhythmic Structure–Activity Relationships for a Mirror Image, Oligomeric Depsipeptide Natural Product” (Journal of Medicinal Chemistry, 2024).
“Also recorded” adds a separate entry of the source. Where two headings read alike, the source gives them in different places.

Legend:
[1] = amide bond, 24-membered ring, PyBOP/DIPEA, DMF, 3 steps
RyR2 = target: T1, RyR2 (Mus musculus, UniProt E9Q401); assay: Calcium spark assay in saponin-permeabilized ventricular cardiomyocytes; type: cell-based, mouse (C57BL/6J); conditions: for Normalized Calcium Leak: CSV supplement, Series 2-5; for Normalized Calcium Leak / Calcium spark Amplitude (normalized to vehicle) / Calcium spark Leak (normalized to vehicle) / Calcium spark Mass (normalized to vehicle) / Calcium spark Frequency (normalized to vehicle): 25 μM drug, normalized to vehicle (DMSO), mean ± standard deviation; for Calcium spark Amplitude (normalized to vehicle) / Calcium spark Leak (normalized to vehicle) / Calcium spark Mass (normalized to vehicle) / Calcium spark Frequency (normalized to vehicle): Supplement Tables 2-3; for Calcium spark Amplitude (normalized to vehicle) / Calcium spark Leak (normalized to vehicle) / Calcium spark Mass (normalized to vehicle): permeabilized murine cardiomyocytes; for Calcium spark Frequency (normalized to vehicle): permeabilized murine left ventricular myocytes, 15 min incubation; for Inhibition of RyR2-mediated calcium sparks (in words): spark frequency after 15 min incubation with 25 μM compound, permeabilized myocytes
T1 construct: ventricular cardiomyocytes were isolated from C57Bl/6J mice, adhered to laminin-coated glass bottom culture dishes, permeabilized with saponin; endogenous in cells; host or cells: left ventricular cardiomyocytes freshly isolated from C57BL/6J mice, saponin-permeabilized
T1 sequence (E9Q401 whole entry): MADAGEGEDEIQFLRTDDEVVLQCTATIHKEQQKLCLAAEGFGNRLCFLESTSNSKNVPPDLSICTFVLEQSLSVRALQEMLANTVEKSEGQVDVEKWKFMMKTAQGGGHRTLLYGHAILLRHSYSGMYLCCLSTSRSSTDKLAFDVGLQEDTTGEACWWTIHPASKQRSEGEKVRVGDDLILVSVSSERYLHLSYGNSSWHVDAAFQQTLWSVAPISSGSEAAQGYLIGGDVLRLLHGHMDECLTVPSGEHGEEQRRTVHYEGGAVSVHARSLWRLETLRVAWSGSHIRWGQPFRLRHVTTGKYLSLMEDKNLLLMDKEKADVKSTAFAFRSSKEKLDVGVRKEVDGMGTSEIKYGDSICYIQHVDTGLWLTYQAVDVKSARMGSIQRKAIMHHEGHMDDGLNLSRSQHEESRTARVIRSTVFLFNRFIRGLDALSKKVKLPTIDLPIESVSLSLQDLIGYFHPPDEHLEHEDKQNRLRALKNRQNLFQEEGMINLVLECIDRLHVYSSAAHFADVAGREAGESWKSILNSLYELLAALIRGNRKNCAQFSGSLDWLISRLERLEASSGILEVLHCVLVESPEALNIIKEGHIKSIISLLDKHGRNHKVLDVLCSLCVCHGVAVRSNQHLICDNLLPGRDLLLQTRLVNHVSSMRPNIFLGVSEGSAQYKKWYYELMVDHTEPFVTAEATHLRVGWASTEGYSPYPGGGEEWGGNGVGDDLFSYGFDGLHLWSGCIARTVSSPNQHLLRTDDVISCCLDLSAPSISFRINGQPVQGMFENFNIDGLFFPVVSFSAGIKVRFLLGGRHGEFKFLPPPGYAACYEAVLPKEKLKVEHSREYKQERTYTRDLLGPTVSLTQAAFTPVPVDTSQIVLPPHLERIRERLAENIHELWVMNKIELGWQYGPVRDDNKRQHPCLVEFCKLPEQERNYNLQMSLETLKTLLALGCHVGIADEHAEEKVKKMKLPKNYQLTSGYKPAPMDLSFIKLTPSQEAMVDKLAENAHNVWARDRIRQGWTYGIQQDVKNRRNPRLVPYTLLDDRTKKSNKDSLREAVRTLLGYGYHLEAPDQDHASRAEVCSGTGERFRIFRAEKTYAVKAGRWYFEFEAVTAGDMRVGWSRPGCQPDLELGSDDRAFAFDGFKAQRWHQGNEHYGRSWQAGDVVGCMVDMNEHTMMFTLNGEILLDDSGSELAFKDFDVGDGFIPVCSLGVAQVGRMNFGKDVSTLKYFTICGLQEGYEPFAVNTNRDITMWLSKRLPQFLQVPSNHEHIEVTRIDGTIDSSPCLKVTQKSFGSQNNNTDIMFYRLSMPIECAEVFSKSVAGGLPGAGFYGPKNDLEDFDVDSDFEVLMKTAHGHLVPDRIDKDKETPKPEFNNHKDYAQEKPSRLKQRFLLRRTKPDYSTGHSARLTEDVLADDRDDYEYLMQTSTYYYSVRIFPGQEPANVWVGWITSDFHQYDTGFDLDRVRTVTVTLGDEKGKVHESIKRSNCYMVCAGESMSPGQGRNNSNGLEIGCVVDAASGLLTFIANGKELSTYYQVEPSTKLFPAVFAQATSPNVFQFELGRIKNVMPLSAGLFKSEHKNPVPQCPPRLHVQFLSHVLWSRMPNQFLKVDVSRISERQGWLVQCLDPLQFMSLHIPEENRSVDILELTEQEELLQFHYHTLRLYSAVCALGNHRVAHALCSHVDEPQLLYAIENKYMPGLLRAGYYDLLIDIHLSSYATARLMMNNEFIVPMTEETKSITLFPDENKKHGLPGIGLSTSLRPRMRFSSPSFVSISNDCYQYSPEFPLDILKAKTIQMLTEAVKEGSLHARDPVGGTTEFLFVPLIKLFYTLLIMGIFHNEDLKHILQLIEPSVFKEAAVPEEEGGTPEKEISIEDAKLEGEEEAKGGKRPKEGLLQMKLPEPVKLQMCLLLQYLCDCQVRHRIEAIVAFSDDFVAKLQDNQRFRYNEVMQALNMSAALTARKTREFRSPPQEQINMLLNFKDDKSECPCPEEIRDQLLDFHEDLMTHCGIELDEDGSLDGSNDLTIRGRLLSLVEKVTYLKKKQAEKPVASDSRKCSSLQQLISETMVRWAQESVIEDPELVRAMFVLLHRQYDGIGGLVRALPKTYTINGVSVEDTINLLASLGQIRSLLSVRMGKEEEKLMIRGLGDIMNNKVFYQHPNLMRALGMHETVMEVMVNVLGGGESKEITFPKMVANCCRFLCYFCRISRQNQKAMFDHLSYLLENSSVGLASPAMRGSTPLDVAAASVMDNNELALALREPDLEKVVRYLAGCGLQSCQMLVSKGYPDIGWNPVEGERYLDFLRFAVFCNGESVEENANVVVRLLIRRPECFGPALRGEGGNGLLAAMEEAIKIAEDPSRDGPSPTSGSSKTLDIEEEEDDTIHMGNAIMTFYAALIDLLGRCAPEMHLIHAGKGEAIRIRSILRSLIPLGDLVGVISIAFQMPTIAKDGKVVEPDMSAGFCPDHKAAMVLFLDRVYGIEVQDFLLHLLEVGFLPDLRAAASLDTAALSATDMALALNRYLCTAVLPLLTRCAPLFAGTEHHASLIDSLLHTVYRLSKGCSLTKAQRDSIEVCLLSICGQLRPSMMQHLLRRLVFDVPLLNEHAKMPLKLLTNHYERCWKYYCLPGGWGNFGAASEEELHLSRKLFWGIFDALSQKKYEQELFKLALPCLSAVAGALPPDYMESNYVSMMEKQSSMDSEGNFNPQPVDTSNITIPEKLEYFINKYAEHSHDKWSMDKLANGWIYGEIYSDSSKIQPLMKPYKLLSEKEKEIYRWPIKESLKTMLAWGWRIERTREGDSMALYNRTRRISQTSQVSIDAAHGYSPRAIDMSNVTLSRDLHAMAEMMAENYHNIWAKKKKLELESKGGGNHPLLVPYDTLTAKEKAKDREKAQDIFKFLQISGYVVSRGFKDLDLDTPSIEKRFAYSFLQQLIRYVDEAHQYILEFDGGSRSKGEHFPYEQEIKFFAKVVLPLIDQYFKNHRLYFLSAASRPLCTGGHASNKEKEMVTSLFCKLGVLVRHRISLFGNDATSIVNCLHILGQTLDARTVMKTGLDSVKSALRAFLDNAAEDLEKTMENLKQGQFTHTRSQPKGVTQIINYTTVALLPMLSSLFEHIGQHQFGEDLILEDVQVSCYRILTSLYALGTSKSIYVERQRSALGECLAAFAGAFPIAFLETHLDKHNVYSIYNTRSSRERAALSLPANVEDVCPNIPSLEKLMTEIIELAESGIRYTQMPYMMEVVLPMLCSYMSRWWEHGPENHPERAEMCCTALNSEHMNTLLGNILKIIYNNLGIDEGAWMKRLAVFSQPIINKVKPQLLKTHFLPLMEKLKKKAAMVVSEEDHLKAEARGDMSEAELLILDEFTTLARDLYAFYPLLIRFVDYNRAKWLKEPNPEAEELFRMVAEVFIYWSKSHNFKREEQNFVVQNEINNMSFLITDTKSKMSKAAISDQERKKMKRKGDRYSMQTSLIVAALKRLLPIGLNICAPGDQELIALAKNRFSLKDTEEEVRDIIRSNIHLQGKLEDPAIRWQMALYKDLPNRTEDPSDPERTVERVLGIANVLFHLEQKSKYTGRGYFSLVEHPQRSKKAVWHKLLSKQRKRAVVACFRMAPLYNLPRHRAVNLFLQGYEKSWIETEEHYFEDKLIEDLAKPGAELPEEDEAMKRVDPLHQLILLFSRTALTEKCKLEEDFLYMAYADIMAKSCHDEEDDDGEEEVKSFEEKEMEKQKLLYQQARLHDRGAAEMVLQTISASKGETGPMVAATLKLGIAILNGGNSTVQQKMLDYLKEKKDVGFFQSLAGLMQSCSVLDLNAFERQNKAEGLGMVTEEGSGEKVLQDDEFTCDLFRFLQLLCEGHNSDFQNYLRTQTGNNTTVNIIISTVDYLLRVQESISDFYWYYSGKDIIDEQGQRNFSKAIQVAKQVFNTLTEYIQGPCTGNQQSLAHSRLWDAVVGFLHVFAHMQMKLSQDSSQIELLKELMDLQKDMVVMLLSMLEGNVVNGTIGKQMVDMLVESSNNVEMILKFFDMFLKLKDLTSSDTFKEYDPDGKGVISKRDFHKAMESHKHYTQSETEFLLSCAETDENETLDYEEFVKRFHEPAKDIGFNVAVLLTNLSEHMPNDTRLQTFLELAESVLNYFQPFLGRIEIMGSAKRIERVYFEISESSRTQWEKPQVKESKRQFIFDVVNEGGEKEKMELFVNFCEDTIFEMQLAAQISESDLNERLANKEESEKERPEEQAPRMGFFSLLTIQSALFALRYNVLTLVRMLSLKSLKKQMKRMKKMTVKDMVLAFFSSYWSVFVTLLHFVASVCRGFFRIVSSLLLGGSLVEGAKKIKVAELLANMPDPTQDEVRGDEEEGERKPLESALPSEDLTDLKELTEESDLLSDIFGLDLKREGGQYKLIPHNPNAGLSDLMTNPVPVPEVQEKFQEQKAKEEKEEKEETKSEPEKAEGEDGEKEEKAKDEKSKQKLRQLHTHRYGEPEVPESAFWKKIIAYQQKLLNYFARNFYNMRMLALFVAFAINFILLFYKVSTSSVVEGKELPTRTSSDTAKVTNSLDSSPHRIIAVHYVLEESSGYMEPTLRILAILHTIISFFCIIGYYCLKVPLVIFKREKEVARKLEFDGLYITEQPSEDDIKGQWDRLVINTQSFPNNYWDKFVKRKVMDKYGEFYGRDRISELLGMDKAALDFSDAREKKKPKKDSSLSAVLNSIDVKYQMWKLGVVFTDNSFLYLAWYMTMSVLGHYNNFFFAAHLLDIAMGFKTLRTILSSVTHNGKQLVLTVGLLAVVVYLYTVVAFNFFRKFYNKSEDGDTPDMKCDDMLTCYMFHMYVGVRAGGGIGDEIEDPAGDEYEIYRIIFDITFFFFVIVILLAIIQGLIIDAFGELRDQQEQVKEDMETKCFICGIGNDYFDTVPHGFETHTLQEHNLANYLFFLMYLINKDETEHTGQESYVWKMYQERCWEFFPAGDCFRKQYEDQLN
Method: With a wide range of ent-verticilide analogs in hand, organized by five series that systematically change the backbone functionality without modifying the alternating methyl and pentyl side chains, we pursued their evaluation in the calcium sparks assay for insight into potential antiarrhythmic activity.[3] Left ventricular myocytes were isolated from C57BL/6J mice and subjected to brief incubation with saponin, which permeabilizes the sarcolemma and enables equivalent access of compounds to RyR2, irrespective of their permeability.[14] Cardiomyocytes were then incubated in an internal solution designed to promote spontaneous RyR2-mediated calcium release events, known as sparks,[34] and the spark frequency was recorded following a 15 min incubation with 25 μM of each compound. Figure 3 summarizes these findings; no inhibition of RyR2 (lack of activity) is reflected as a value of 1 (dotted line). […] In that study, we noted that the 18-membered oligomer was more forgiving. […] Series 4–5 analogs produced nearly flat SAR, with no notable inhibition by any of the analogs.
Figure 3 RyR2-mediated calcium spark frequency in permeabilized left ventricular myocytes incubated with 25 μM drug for 15 min. All data normalized to vehicle (DMSO) condition. […] (A) *P < 0.0001 vs vehicle. N = 29 (2), 102 (5), 105 (5), 108 (5), 119 (4), and 87 cells (mice). Previously reported in Johnston et al. ACS Med. Chem. Lett., 2022, 13(11), 1755–1762. (B) *P < 0.0001 vs vehicle. # P = 0.00041 vs vehicle. N = 38, 46, 54, 50, and 50 cells, respectively, from 2 mice. (C) *P < 0.0001 vs vehicle. # P = 0.034 vs vehicle. N = 79 (4), 58 (3), 79 (4), 80 (5), and 91 (5) cells (mice). (D) P > 0.05 for all groups vs vehicle. N = 66 (4), 42 (2), 37 (2), 38 (2), 43(2), and 37 (2) cells (mice). (E) *P < 0.0001 vs vehicle. N = 66 (4), 85 (5), 93 (5), 100 (5), 89 (5), and 67 (4) cells (mice).
Calcium spark measurements were made, as previously described.[5] Briefly, ventricular cardiomyocytes were isolated from C57Bl/6J mice, adhered to laminin-coated glass bottom culture dishes, permeabilized with saponin, and incubated with an internal solution containing the calcium sensitive dye, Fluo-4. Elementary spark recordings were made using an Olympus inverted microscope equipped with a solid-state diode laser at 488 nm for excitation, 40× silicone objective (1.25 NA), and Hamamatsu CMOS camera for detection. Spark detection analysis was performed using SparkMaster2.[37]
Statistical analysis was carried out in R using a hierarchical clustering model to cluster data by experiment and account for mouse-to-mouse variability.[38] A cutoff value of 0.05 was used as the threshold to reject the null hypothesis. The numbers of cells and replicates (mice) are indicated in the figure legend for each compound.
Johnston et al. Supporting Information […]
of 0.05 was used as the threshold to reject the null hypothesis.
Safety: No unexpected or unusually high safety hazards were encountered.
Biological Experiment Data: Calcium spark parameters
For all series, assay is run with 25 μM solution of drug. Values are normalized to the vehicle (DMSO) condition and reported as mean ± standard deviation. Statistical comparisons were made using a hierarchical clustering model with Bonferroni correction. Adjusted p-values < 0.05 vs vehicle are indicated with an asterisk. Each mouse was an independent experiment, the replicates are listed as n (cells).
Supplement Table 1. Calcium spark parameters from murine cardiomyocytes for ent-verticilide and series 1 analogs.
Supplement Table 2. Calcium spark parameters from murine cardiomyocytes for series 2 analogs.
Supplement Table 3. Calcium spark parameters from murine cardiomyocytes for series 3 analogs. […]
Cardiovasc. Res.

Substance | ring closure, yield after HPLC [1] | ring closure, yield after HPLC ([1]; 4.6 mM) | Normalized Calcium Leak (RyR2) | Calcium spark Amplitude (normalized to vehicle) (RyR2) | Calcium spark Leak (normalized to vehicle) (RyR2) | Calcium spark Mass (normalized to vehicle) (RyR2) | Calcium spark Frequency (normalized to vehicle) (RyR2) | Inhibition of RyR2-mediated calcium sparks (in words) (RyR2)
(3R,6S,9R,12S,15R,18S,21R,24S)-1,3,4,7,9,10,13,15,16,19,21,22-dodecamethyl-6,12,18,24-tetrapentyl-1,4,7,10,13,16,19,22-octaazacyclotetracosan-2,5,8,11,14,17,20,23-octaone | 8% | – | – | – | – | – | – | –
(3R,6S,9R,12S,15R,18S,21R,24S)-1,3,4,7,9,10,13,15,16,19,21-undecamethyl-6,12,18,24-tetrapentyl-1,4,7,10,13,16,19,22-octaazacyclotetracosan-2,5,8,11,14,17,20,23-octaone | – | 7.5% | – | – | – | – | – | –
(3R,6S,9R,12S,15R,18S,21R,24S)-1,3,4,7,9,10,13,15,16,19,21-undecamethyl-6,12,18,24-tetrapentyl-1,4,7,10,13,16,19,22-octaazacyclotetracosan-2,5,8,11,14,17,20,23-octaone [4.2] | – | – | 1.35 ± 1.14 | – | – | – | – | –
(3R,6S,9R,12S,15R,18S,21R,24S)-1,3,4,7,9,13,15,19,21-nonamethyl-6,12,18,24-tetrapentyl-1,4,7,10,13,16,19,22-octaazacyclotetracosan-2,5,8,11,14,17,20,23-octaone [4.5] | – | – | 1.43 ± 0.66 | – | – | – | – | –
(3R,6S,9R,12S,15R,18S,21R,24S)-1,3,7,9,13,15,19,21-octamethyl-6,12,18,24-tetrapentyl-1,4,7,10,13,16,19,22-octaazacyclotetracosan-2,5,8,11,14,17,20,23-octaone [4.6] | – | – | 1.15 ± 0.71 | – | – | – | – | –
(3R,6S,9R,12S,15R,18S,21R,24S)-3,4,7,9,10,15,16,19,21,22-decamethyl-6,12,18,24-tetrapentyl-1,13-dioxa-4,7,10,16,19,22-hexaazacyclotetracosan-2,5,8,11,14,17,20,23-octaone [3.3] | – | – | 0.93 ± 0.45 | 1.00 ± 0.16 | 0.93 ± 0.45 | 0.96 ± 0.42 | 0.96 ± 0.26 | –
(3R,6S,9R,12S,15R,18S,21R,24S)-3,4,9,10,13,15,16,19,21,22-decamethyl-6,12,18,24-tetrapentyl-1,7-dioxa-4,10,13,16,19,22-hexaazacyclotetracosan-2,5,8,11,14,17,20,23-octaone [3.2] | – | – | 0.99 ± 0.53 | 1.02 ± 0.20 | 0.99 ± 0.53 | 1.03 ± 0.50 | 0.97 ± 0.28 | –
(3R,6S,9R,12S,15R,18S,21R,24S)-3,4,9,10,15,16,19,21,22-nonamethyl-6,12,18,24-tetrapentyl-1,7,13-trioxa-4,10,16,19,22-pentaazacyclotetracosan-2,5,8,11,14,17,20,23-octaone [3.1] | – | – | 0.75 ± 0.63 | 0.99 ± 0.20 | 0.75 ± 0.63 | 0.81 ± 0.55 | 0.79 ± 0.29 | partial inhibition, but less so than analog 2.1; also recorded: measurable activity
(3R,6S,9R,12S,15R,18S,21R,24S)-3,4,9,10,15,16,21,22-octamethyl-6,12,18,24-tetrapentyl-1,7,13-trioxa-4,10,16,19,22-pentaazacyclotetracosan-2,5,8,11,14,17,20,23-octaone [2.1] | – | – | 0.60 ± 0.65 | 0.93 ± 0.31 | 0.60 ± 0.65 | 1.04 ± 0.64 | 0.51 ± 0.25 | modest potency; also recorded: measurable activity
(3R,6S,9R,12S,15R,18S,21R,24S)-3,4,9,10,15,16,21,22-octamethyl-6,12,18,24-tetrapentyl-1,13-dioxa-4,7,10,16,19,22-hexaazacyclotetracosan-2,5,8,11,14,17,20,23-octaone [2.3] | – | – | 1.03 ± 0.53 | 0.92 ± 0.19 | 1.03 ± 0.53 | 1.02 ± 0.43 | 1.01 ± 0.20 | –
(3R,6S,9R,12S,15R,18S,21R,24S)-3,4,9,10,15,16,21,22-octamethyl-6,12,18,24-tetrapentyl-1-oxa-4,7,10,13,16,19,22-heptaazacyclotetracosan-2,5,8,11,14,17,20,23-octaone [2.4] | – | – | 0.97 ± 0.56 | 1.08 ± 0.22 | 0.97 ± 0.56 | 0.98 ± 0.39 | 0.97 ± 0.17 | –
(3S,6R,9S,12R,15S,18R,21S,24R)-1,4,6,7,10,12,13,16,18,19,24-undecamethyl-3,9,15,21-tetrapentyl-1,4,7,10,13,16,19,22-octaazacyclotetracosan-2,5,8,11,14,17,20,23-octaone [5.2] | – | – | 1.08 ± 0.66 | – | – | – | – | –
(3S,6R,9S,12R,15S,18R,21S,24R)-1,4,6,7,10,12,13,18,19,24-decamethyl-3,9,15,21-tetrapentyl-1,4,7,10,13,16,19,22-octaazacyclotetracosan-2,5,8,11,14,17,20,23-octaone [5.3] | – | – | 1.23 ± 0.57 | – | – | – | – | –
(3S,6R,9S,12R,15S,18R,21S,24R)-1,4,6,7,12,13,16,18,19,24-decamethyl-3,9,15,21-tetrapentyl-1,4,7,10,13,16,19,22-octaazacyclotetracosan-2,5,8,11,14,17,20,23-octaone [5.4] | – | – | 1.14 ± 0.69 | – | – | – | – | –
(3S,6R,9S,12R,15S,18R,21S,24R)-1,4,6,7,12,13,18,19,24-nonamethyl-3,9,15,21-tetrapentyl-1,4,7,10,13,16,19,22-octaazacyclotetracosan-2,5,8,11,14,17,20,23-octaone [5.5] | – | – | 1.14 ± 0.65 | – | – | – | – | –
(3S,6R,9S,12R,15S,18R,21S,24R)-1,6,7,12,13,18,19,24-Octamethyl-3,9,15,21-tetrapentyl-1,4,7,10,13,16,19,22-octaazacyclotetracosan-2,5,8,11,14,17,20,23-octaone [2.5] | – | – | 1.09 ± 0.46 | 1.17 ± 0.34 | 1.09 ± 0.46 | 1.06 ± 0.35 | 1.04 ± 0.20 | –
